Results published in the NIST ThermoML archive (doi:10.1016/j.fluid.2012.12.014).
Numbers after ± are expanded uncertainties.

Conditions: Liquid, Closed cell (Static) method

vapor or sublimation pressure (383.2 K): 142.5 ± 2.1 kPa
vapor or sublimation pressure (393.2 K): 198.7 ± 2.2 kPa
vapor or sublimation pressure (403.2 K): 270 ± 2.5 kPa
vapor or sublimation pressure (413.2 K): 361.7 ± 2.8 kPa
vapor or sublimation pressure (423.2 K): 476.1 ± 3 kPa
Compound: O [water]
